Measurements published in ChEMBL document CHEMBL1201862, “PubChem BioAssay data set” (2004).
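48-hour exposure; five concentrations; linearly interpolated endpoints. GI50 marks 50% less growth.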 The source made the active and inactive calls. No stated cut-off is given here; in the data, active = GI50 up to about 1.1 µM and inactive = higher.

How the values were obtained:
Experiment in all cases: NCI anticancer screen, dose series, 48 h
HOP-92 = system: HOP-92
OVCAR-3 = system: OVCAR-3
SK-MEL-2 = system: SK-MEL-2
UACC-62 = system: UACC-62
HT-29 = system: HT-29
Malme-3M = system: Malme-3M
HCC 2998 = system: HCC 2998
786-0 = system: 786-0
OVCAR-8 = system: OVCAR-8
OVCAR-5 = system: OVCAR-5
SN12C = system: SN12C
NCI-H460 = system: NCI-H460
RPMI-8226 = system: RPMI-8226
EKVX = system: EKVX
TK-10 = system: TK-10
SK-OV-3 = system: SK-OV-3
CAKI-1 = system: CAKI-1
M14 = system: M14
UACC-257 = system: UACC-257

Measured: GI50

O=C1CCCCC1S(=O)(=O)c1ccccc1 (stereo unspecified)
inactive: HOP-92 > 100 µM | OVCAR-3 > 100 µM | SK-MEL-2 > 100 µM | UACC-62 > 100 µM | HT-29 > 100 µM | Malme-3M > 100 µM | HCC 2998 > 100 µM | 786-0 > 100 µM | OVCAR-8 > 100 µM | OVCAR-5 > 100 µM | SN12C > 100 µM | NCI-H460 > 100 µM | RPMI-8226 > 100 µM | EKVX > 100 µM | TK-10 > 100 µM | SK-OV-3 > 100 µM | CAKI-1 > 100 µM | M14 > 100 µM | UACC-257 > 100 µM

COC(=O)C(C(=O)C(=O)Nc1ccc(OC)cc1[N+](=O)[O-])c1nc2cc(C)c(C)cc2nc1O (stereo unspecified)
inactive: HOP-92 > 100 µM | OVCAR-3 > 100 µM | UACC-62 > 100 µM | HT-29 > 100 µM | Malme-3M > 100 µM | HCC 2998 > 100 µM | 786-0 > 100 µM | OVCAR-8 > 100 µM | SN12C > 100 µM | NCI-H460 > 100 µM | EKVX 74.6 µM | TK-10 > 100 µM | SK-OV-3 > 100 µM | CAKI-1 > 100 µM | M14 > 100 µM | UACC-257 > 100 µM

CC(=O)COC(=O)CC(C)=O
inactive: OVCAR-3 > 100 µM | SK-MEL-2 > 100 µM | UACC-62 > 100 µM | HT-29 > 100 µM | Malme-3M > 100 µM | HCC 2998 > 100 µM | 786-0 > 100 µM | OVCAR-8 > 100 µM | OVCAR-5 > 100 µM | SN12C > 100 µM | NCI-H460 > 100 µM | RPMI-8226 > 100 µM | EKVX > 100 µM | TK-10 > 100 µM | SK-OV-3 > 100 µM | CAKI-1 > 100 µM | M14 > 100 µM | UACC-257 > 100 µM

CSc1n[n+]2c(s1)SCCC2
inactive: HOP-92 > 100 µM | OVCAR-3 > 100 µM | UACC-62 > 100 µM | HT-29 > 100 µM | Malme-3M > 100 µM | HCC 2998 > 100 µM | 786-0 > 100 µM | OVCAR-8 > 100 µM | OVCAR-5 > 100 µM | SN12C > 100 µM | NCI-H460 > 100 µM | TK-10 > 100 µM | CAKI-1 31.9 µM | M14 > 100 µM | UACC-257 > 100 µM

NS(=O)(=O)c1ccc(Nc2c3ccccc3nc3c(C(=O)N4CCN(CCO)CC4)cccc23)cc1
inactive: HOP-92 > 100 µM | OVCAR-3 > 100 µM | SK-MEL-2 > 100 µM | UACC-62 > 100 µM | HT-29 71.8 µM | Malme-3M > 100 µM | HCC 2998 > 100 µM | 786-0 > 100 µM | OVCAR-8 > 100 µM | OVCAR-5 > 100 µM | SN12C > 100 µM | NCI-H460 > 100 µM | EKVX > 100 µM | TK-10 > 100 µM | SK-OV-3 > 100 µM | CAKI-1 > 100 µM | M14 > 100 µM | UACC-257 > 100 µM

Cc1cc2oc(=O)[nH]c(=S)c2c(C)c1C
inactive: HOP-92 > 100 µM | OVCAR-3 > 100 µM | SK-MEL-2 > 100 µM | UACC-62 > 100 µM | HT-29 > 100 µM | Malme-3M > 100 µM | HCC 2998 > 100 µM | 786-0 > 100 µM | OVCAR-8 > 100 µM | SN12C > 100 µM | NCI-H460 > 100 µM | RPMI-8226 > 100 µM | EKVX 48.2 µM | TK-10 > 100 µM | SK-OV-3 > 100 µM | M14 > 100 µM | UACC-257 > 100 µM

COc1cc2c(cc1OC)[C@H]1C(COC(=O)Nc3ccccc3)CN1CC2 (stereo partly specified)
inactive: HOP-92 69.3 µM | OVCAR-3 > 100 µM | SK-MEL-2 > 100 µM | UACC-62 > 100 µM | HT-29 74.5 µM | Malme-3M > 100 µM | HCC 2998 67.6 µM | 786-0 > 100 µM | OVCAR-8 > 100 µM | OVCAR-5 > 100 µM | SN12C > 100 µM | NCI-H460 > 100 µM | RPMI-8226 > 100 µM | TK-10 > 100 µM | SK-OV-3 > 100 µM | CAKI-1 > 100 µM | M14 53.8 µM

CCCCCCCCCCCCCCCCCC(=O)O[C@H](COC(=O)CCCCCCCCCCC)COC(=O)CCCCCCCCCCCCCCC
inactive: HOP-92 > 100 µM | OVCAR-3 > 100 µM | UACC-62 > 100 µM | HT-29 > 100 µM | Malme-3M > 100 µM | HCC 2998 > 100 µM | 786-0 > 100 µM | OVCAR-8 > 100 µM | OVCAR-5 > 100 µM | SN12C > 100 µM | NCI-H460 > 100 µM | RPMI-8226 > 100 µM | TK-10 > 100 µM | SK-OV-3 > 100 µM | CAKI-1 > 100 µM | M14 > 100 µM | UACC-257 > 100 µM

COc1cc(CC2c3cc(OC)c(OC)cc3CCN2C)ccc1O (stereo unspecified)
inactive: OVCAR-3 > 100 µM | SK-MEL-2 > 100 µM | HT-29 > 100 µM | Malme-3M > 100 µM | HCC 2998 > 100 µM | 786-0 > 100 µM | OVCAR-8 > 100 µM | OVCAR-5 > 100 µM | SN12C > 100 µM | NCI-H460 > 100 µM | RPMI-8226 > 100 µM | EKVX > 100 µM | TK-10 > 100 µM | CAKI-1 > 100 µM | M14 > 100 µM | UACC-257 > 100 µM

C=C(C)C1Cc2c(cc(OC)c3c(=O)c4ccccc4n(C)c23)O1 (stereo unspecified)
inactive: HOP-92 > 100 µM | OVCAR-3 > 100 µM | SK-MEL-2 > 100 µM | UACC-62 37.8 µM | HT-29 > 100 µM | Malme-3M > 100 µM | HCC 2998 > 100 µM | 786-0 > 100 µM | OVCAR-8 > 100 µM | OVCAR-5 > 100 µM | SN12C > 100 µM | NCI-H460 > 100 µM | RPMI-8226 > 100 µM | EKVX > 100 µM | TK-10 > 100 µM | SK-OV-3 > 100 µM | CAKI-1 > 100 µM | M14 > 100 µM | UACC-257 > 100 µM

CC(=O)Nc1nnc(S(C)(=O)=O)s1
inactive: HOP-92 > 100 µM | OVCAR-3 > 100 µM | HT-29 > 100 µM | Malme-3M > 100 µM | 786-0 > 100 µM | OVCAR-8 > 100 µM | OVCAR-5 > 100 µM | SN12C > 100 µM | NCI-H460 > 100 µM | RPMI-8226 > 100 µM | EKVX > 100 µM | TK-10 > 100 µM | M14 > 100 µM | UACC-257 > 100 µM
